Source: article PMC2779710 (Journal of medicinal chemistry, 2009)
Positions of bridges follow the written chain, without caps; N, C: chain ends. Non-standard residues stand in square brackets, D forms with d. Residues, ends and D or L forms follow the SMILES beside them. Phe(4-CH2NHiPr) = CC(C)NCc1ccc(C[C@H](N)C(=O)O)cc1

What was measured:
SRIF receptor = settings: cited from earlier work
human sst1 receptor = human sst1 receptor (Homo sapiens, UniProt P30872); assay: Luciferase reporter gene assay in CCL39-sst1-Luci cells; settings: for Luciferase Assay (agonist/antagonist property): CCL39-sst1-Luci cells, 0.1 nM to 1 μM, 5 h
Sequence of human sst1 receptor (P30872 whole entry): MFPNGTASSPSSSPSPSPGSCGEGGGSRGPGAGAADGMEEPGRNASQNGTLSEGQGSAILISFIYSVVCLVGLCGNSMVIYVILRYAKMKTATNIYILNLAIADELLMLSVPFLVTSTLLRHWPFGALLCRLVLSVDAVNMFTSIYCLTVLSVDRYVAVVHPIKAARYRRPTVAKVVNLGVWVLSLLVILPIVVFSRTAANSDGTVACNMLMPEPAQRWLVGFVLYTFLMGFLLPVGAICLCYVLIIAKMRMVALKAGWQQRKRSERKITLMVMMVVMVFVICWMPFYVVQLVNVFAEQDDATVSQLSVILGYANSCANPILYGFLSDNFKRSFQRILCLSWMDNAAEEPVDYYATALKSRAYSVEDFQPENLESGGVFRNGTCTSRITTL

| Structure (SMILES) | binding affinity to any SRIF receptor (SRIF receptor) | Luciferase Assay (agonist/antagonist property) (human sst1 receptor) | less potent than SRIF or 25 in luciferase reporter gene assay (human sst1 receptor; EC50 comparison) |
| --- | --- | --- | --- |
| CC(C)NCc1ccc(C[C@@H]2NC(=O)[C@@H](Cc3c[nH]c4ccccc34)NC(=O)[C@H](Cc3ccccc3)NC(=O)[C@H](Cc3ccccc3)NC(=O)[C@@H](N)CSSC[C@@H](C(=O)O)NC(=O)[C@H](Cc3ccccc3)NC(=O)[C@H]([C@@H](C)O)NC2=O)cc1 [Compound 9, des-AA^1,2,4,5,12,13-[DTrp^8, IAmp^9]-SRIF] (H-CFF[dW][Phe(4-CH2NHiPr)]TFC-OH; disulfide 1-8 (inferred)) | no binding affinity |  |  |
| CC(C)NCc1ccc(C[C@@H]2NC(=O)[C@@H](N(C)C(=O)c3ccc4ccccc4c3)NC(=O)[C@H](Cc3ccccc3)NC(=O)[C@@H](N)CSSC[C@@H](C(=O)N[C@H](C(N)=O)[C@@H](C)O)NC(=O)[C@H](Cc3ccccc3)NC2=O)cc1 [Compound 23, des-AA^1,2,4-6,10,12,13-[DAgl(NMe,2naphthoyl)^8,IAmp^9]-SRIF-Thr-NH2] |  | agonist |  |
| CC(C)NCc1ccc(C[C@@H]2NC(=O)[C@@H](N(C)C(=O)c3ccc4ccccc4c3)NC(=O)[C@H](Cc3ccccc3)NC(=O)[C@@H](NC(=O)[C@H](N)Cc3ccc(O)cc3)CSSC[C@@H](C(=O)N[C@H](C(N)=O)[C@@H](C)O)NC(=O)[C@H](Cc3ccccc3)NC2=O)cc1 [Compound 25, des-AA^1,4-6,10,12,13-[DTyr^2,DAgl(NMe,2naphthoyl)^8,IAmp^9]-SRIF-Thr-NH2] |  | potent sst1 agonist |  |
| CC(C)NCc1ccc(C[C@@H]2NC(=O)[C@@H](N(C)C(=O)c3ccc4ccccc4c3)NC(=O)[C@H](Cc3ccccc3)NC(=O)[C@@H](N)CSSC[C@@H](C(N)=O)NC(=O)[C@H](Cc3ccc(O)cc3)NC2=O)cc1 [Compound 27, des-AA^1,2,4-6,10,12,13-[DAgl(NMe,2naphthoyl)^8,IAmp^9,Tyr^11]-SRIF-NH2] |  | agonist |  |
| CC(C)NCc1ccc(C[C@@H]2NC(=O)[C@@H](N(C)C(=O)c3ccc4ccccc4c3)NC(=O)[C@H](Cc3ccccc3)NC(=O)[C@H](N)CSSC[C@@H](C(=O)N[C@@H](Cc3ccc4ccccc4c3)C(N)=O)NC(=O)[C@H](Cc3ccccc3)NC2=O)cc1 [Compound 29, des-AA^1,2,4-6,10,12,13-[DCys^3,DAgl(NMe,2naphthoyl)^8,IAmp^9]-SRIF-2Nal-NH2] |  | agonist |  |
| CC(C)NCc1ccc(C[C@@H]2NC(=O)[C@@H](Cc3c[nH]c4ccccc34)NC(=O)[C@H](Cc3ccccc3)NC(=O)[C@H](Cc3ccccc3)NC(=O)[C@H](CCCCN)NC(=O)[C@@H](NC(=O)[C@@H](N)Cc3ccc(O)cc3)CSSC[C@@H](C(=O)O)NC(=O)[C@H](CO)NC(=O)[C@H]([C@@H](C)O)NC(=O)[C@H](Cc3ccccc3)NC(=O)[C@H]([C@@H](C)O)NC2=O)cc1 [Compound 33, reference compound] (H-YCKFF[dW][Phe(4-CH2NHiPr)]TFTSC-OH; disulfide 2-12 (inferred)) |  | agonist | approximately 100 fold |
